Measured values reported in patent US20050282893A1 (priority 2004, published 2005).

What was measured:
[1] = tested on: human telomerase; test: Telomerase activity by improved TRAP in transfected FaDu cells; format: cell-based
Procedure: Inhibition of telomerase activity in cell lysates and intact cells. The modified Telomeric Repeat Amplification Protocol (TRAP) assay (Gan, et al., Pharm. Res., 18:488-493, 2001) was used to detect telomerase activity in cell lysate. The telomerase activity in intact cells was measured using intracellular TRAP, as follows. Cells (1×10^5) were washed twice with PBS and centrifuged. The cell pellet was resuspended in 100 μl of serum-free RPMI 1640 containing 5 u/ml of Streptolysin O, 2 μM of TS primer, and 50 μM of dNTP, and incubated at room temperature for 5 min. The enzyme streptolysin O was used to increase the cell membrane permeability to the TS primer. Upon entering a cell, the TS primer was elongated by the intracellular telomerase in situ. The elongated TS primer was then isolated from the cells and used as the template for PCR amplification. Then 200 μl of RPMI 1640 medium containing 10% FBS was added to the cells to stop the permeating process. […] The cells were then lyzed and the cell lysates, which contained the already extended TS primer, was directly analyzed by TRAP.
(§1) Effect of hTR antisense on telomere length and telomerase activity. Telomere length (referred to as terminal restriction fragment) was measured using the TALA method. Telomerase activity was measured using the improved TRAP method.

[2] = tested on: FaDu cells; test: Cell growth of FaDu cells transfected with hTR antisense or sense; format: cell-based, human
Source text: hTR antisense inhibits telomerase. The antisense study consisted of the following steps: (a) construction of a sense and antisense to the RNA portion of the human telomerase (hTR), (b) stable transfection of cells with the hTR antisense (or hTR sense control), and (c) determination of the ability of the hTR antisense to inhibit telomerase activity and induce telomere shortening. The methodologies are detailed in the art, for example, by Mo et al., Cancer Res. 2003.
Transfection procedures. Transfection of the antisense construct used an IPTG-inducible mammalian expression system. The resulting clones were used for experiments.
Effect of hTR antisense on cell growth. Table 2 summarizes the results which show a slower growth rate for the antisense +IPTG cells (i.e., cells that were transfected by hTR antisense and treated with IPTG to induce the expression of […]) compared to cells that had either not been transfected with the antisense, not transfected but treated with IPTG, transfected with the sense and treated with IPTG, or transfected with the antisense but without the IPTG induction (i.e., control, +IPTG, +sense +IPTG, and antisense).

[3] = tested on: telomere length in FaDu cells; test: Telomere length (terminal restriction fragment) by TALA in transfected FaDu cells; format: cell-based, human
Source text: Measurement of telomere length in cultured cells. Two methods were used to measure telomere length. The first method was a solution hybridization based telomere amount and length assay (TALA) (Gan, et al., Pharm. Res., 18:1655-1659, 2001) that measures the mean length of the terminal restriction fragments (TRF). The second method was fluorescence in situ hybridization (FISH) to detect telomere signal and to estimate the approximate length of individual telomere structures at the end of chromosomes. The FISH method is as described in U.S. patent application Ser. No. 09/587,662 and Gan, et al., 2001.
as §1

SMILES: CC(C)S[C@@H]1O[C@H](CO)[C@H](O)[C@H](O)[C@H]1O [+IPTG]
- Telomerase activity, % of control [1]: 98.9 % of control
- Doubling time [2]: 23 h
- Terminal restriction fragment [3]: 2.91 kb
